Laboratory results as given in US20160310369A1, “Low Viscosity Hair Care Composition” (The Procter & Gamble Company, priority 2015, published 2016).
Structures can show the parent of a compound that is named as a salt.

Experiment: Kinematic viscosity of surfactant base formulation with added agent, calibrated Cannon viscometers at 40° C.
Format: physicochemical
Settings: for Kinematic viscosity at 40 C. [cSt] 2% oil: 2% agent in base formulation; for Kinematic viscosity at 40 C. [cSt] Lowest viscosity achieved: lowest over 2-8% agent, Table 2; for Kinematic viscosity at 40 C. [cSt] 4% oil: 4% agent in base formulation; for Kinematic viscosity at 40 C. [cSt] 6% oil: 6% agent in base formulation; for Kinematic viscosity at 40 C. [cSt] 8% oil: 8% agent in base formulation
Description: Referring to Tables 1 and 2, the base formulations were made by mixing 1.6% perfume, 24% sodium undecyl sulfate (CAS#1072-24-8) active, 6% lauramidopropyl betaine (CAS#4292-10-8) active and 60.4% deionized water which leaves 8% unfilled for the addition of a viscosity reducing agent (the balance being filled in by distilled water). For all compositions, the surfactant, water and additives including viscosity reducing agents were expected to be in a single phase.
The agents from Tables 1 and 2 were added to the base formulation at a percentage of 2%, 4%, 6%, and 8% into the above surfactant solution. The subsequent formulations were vortexed and put into oven at 60° C. overnight to form homogeneous solution. The viscosities of the formulations were measured with calibrated viscometers (Size 200/350/450) from Cannon Instrument Company (2139 High Tech Road, State College, Pa., USA, 16803).
(§1) After the equilibration, the formulations were drawn to reach the starting mark with a rubber suction bulb and the flow time between the starting mark and end mark was recorded for calculation. Each formulation was measured three times to calculate average and standard deviation. Between samples, viscometer was cleaned with water and acetone to rinse off residual.
Viscosity values were calculated based on the equation:
Viscosity (mm^2/s·(cSt))=Time (s)*Constant (mm^2/s^2·(cSt/s))
The time in the above equation is the flow time recorded in the experiment and the constant numbers for each calibrated viscometer were obtained from the manuals.
The viscosity of the hair care composition can be calculated using the following method: Combine ingredients including surfactants, perfumes, viscosity reducing agents, polymers, other ingredients and the aqueous medium in a vessel. Samples are vortexed and placed into oven at 60° C. overnight to form a homogeneous solution. Samples that show hazing or clouding and formulas that appear macroscopically heterogeneous (e.g. multiple layers) at room temperature are not considered for further analysis and evaluation.
The viscosities of the formulations are measured with calibrated viscometers (Size 200/350/450) from Cannon Instrument Company (2139 High Tech Road, State College, Pa., USA, 16803). Prior to the measurement, the formulations are equilibrated in the viscometer reservoir for 30 min at 40° C. in water bath to ensure a homogeneous temperature is reached in the system.
as §1, with “are” for “were”, “is” for “was”, “samples, the” for “samples,”

SMILES | Kinematic viscosity at 40 C. [cSt] 2% oil [cSt] | Kinematic viscosity at 40 C. [cSt] Lowest viscosity achieved [cSt] | Kinematic viscosity at 40 C. [cSt] 4% oil [cSt] | Kinematic viscosity at 40 C. [cSt] 6% oil [cSt] | Kinematic viscosity at 40 C. [cSt] 8% oil [cSt]
CCC(=O)O[C@@H]1C[C@H]2CC[C@]1(C)C2(C)C (racemic) [Iso Bornyl Propionate] | 463.1 | 463 | – | – | –
CCCCCCCC(OC)OC [1,1-Dimethoxyoctane] | 500.7 | 308 | 308.1 | – | –
CC(C)CC=C(C=O)C(C)C [2-Isopropyl-5-methyl-2-hexenal] | 332.3 | 332 | – | – | –
CC(=O)OCCC(C)CCCC(C)C (stereo not drawn) [3,7-Dimethyloctyl Acetate] | 445.7 | 446 | – | – | –
CCC(CC(C)CC)=NO (stereo not drawn) [5-Methyl-3-Heptanone Oxime] | 246.3 | 246 | – | – | –
CCCCOC(=O)c1ccccc1O [Butyl Salicylate] | 367.9 | 368 | – | – | –
CC12CCC(CC1=O)C2(C)C (stereo not drawn) [Camphor Gum] | 365.8 | 127 | 127.2 | – | –
CC(=O)OCCC(C)CCC=C(C)C (stereo not drawn) [Citronellyl Acetate] | 362.7 | 363 | – | – | –
CCC(=O)OC1CC2CC1C1CC=CC21 (stereo not drawn) [Cyclaprop] | 404.2 | 404 | – | – | –
CCCCCCC1C(=O)CCC1C(=O)OC (stereo not drawn) [Dihyro Iso Jasmonate] | 334.9 | 119 | 119.1 | – | –
C=C(C)[C@H]1CC=C(C)CC1 [Dipentene] | 307.6 | 35 | 74.5 | 35.1 | 42.6
CCO [Ethanol, reference compound] | 205.6 | 29 | 111.0 | 50.8 | 29.2
CC12CCC(CC1)C(C)(C)O2 [Eucalyptol] | 527.3 | 203 | 292.9 | 203.1 | –
CC(C)=CCC/C(C)=C/COC(=O)Cc1ccccc1 [Geranyl Phenyl Acetate] | 224.0 | 34 | 76.0 | 34.3 | 36.6
CCCCCCCCCCCCCCCC [Hexadecane] | 21.1 | 18 | 18.1 | – | –
CC(CC=O)CCCC(C)(C)O (stereo not drawn) [Hydroxycitronellal] | 310.8 | 34 | 145.4 | 65.9 | 34.1
CC(C)COC(=O)c1ccccc1O [Iso Butyl Salicylate] | 408.7 | 409 | – | – | –
CCCCCCCCCCCCCC(=O)OC(C)C [Iso Propyl Myristate] | 234.2 | 30 | 53.7 | 30.4 | 45.0
CC(C)CCOC(=O)c1ccccc1O [Isoamyl Salicylate] | 460.3 | 193 | 193.2 | – | –
CCCCCC(=O)OCC(C)C [Isobutyl Hexanoate] | 390.0 | 109 | 177.9 | 140.9 | 109.4
C=C(C)[C@H]1CC=C(C)CC1 [Limonene] | 366.5 | 86 | 166.8 | 97.5 | 86.4
C=CC(C)(CCC=C(C)C)OC(=O)C(C)C (stereo not drawn) [Linalyl Iso Butyrate] | 223.4 | 38 | 73.0 | 37.7 | 39.9
COC(C)(C)C1CC=C(C)CC1 (stereo not drawn) [Orange Flower Ether] | 552.2 | 419 | 418.8 | – | –
CC(=O)CCc1ccc(O)cc1 [Raspberry Ketone] | 151.9 | 33 | 107.4 | 54.0 | 33.0
CCOC(=O)CC(O)(CC(=O)OCC)C(=O)OCC [Triethyl Citrate] | 269.4 | 41 | 136.6 | 66.6 | 40.5
CCCCCC1(C)CCC(C)(C)C1=O (stereo not drawn) [Veloutone] | 260.2 | 47 | 129.1 | 56.3 | 47.3
CC1=CC=C(C(C)C)CC1 [alpha-Terpinene] | 324.4 | 42 | 96.0 | 41.5 | 46.7
CC1=CCC(C(C)C)=CC1 [gamma-Terpinene] | 238.0 | 32 | 65.0 | 31.7 | –
